For assay [1], the system named is HCT-116 human colon carcinoma cells. Nature of the assay: Cytotoxicity (in vitro) in HCT-116 human colon carcinoma cells, MTS assay. The format is cell-based. As to conditions: read-out: IC50 (nM) HCT 116. The protocol:
Cytoxicity was assessed in HCT-116 human colon carcinoma cells by MTS (3-(4,5-dimethylthiazol-2-yl)-5-(3-carboxymethoxyphenyl)-2-(4-sulphenyl)-2H-tetrazolium, inner salt) assay as reported in T. L. Riss, et. al., "Comparison of MTT, XTT, and a novel tetrazolium compound MTS for in vitro proliferation and chemosensitivity assays.," Mol. Biol. Cell 3 (Suppl.):184a, 1992. Cells were plated at 4,000 cell/well in 96 well microtiter plates and 24 hours later drugs were added and serial diluted. The cells were incubated at 37° form 72 hours at which time the tetrazolium dye, MTS at 333 μg/ml (final concentration), in combination with the electron coupling agent phenazine methosulfate at 25 μM (final concentration) was added. A dehydrogenase enzyme in live cells reduces the MTS to a form that absorbs light at […] which can be quantitated spectrophotometrically. The greater the absorbance the greater the number of live cells. The results are expressed as an IC50, which is the drug concentration required to inhibit cell proliferation (i.e. absorbance at 450 nm) to 50% of that of untreated control cells. The IC50 values for compounds evaluated in this assay are evaluated in Table I.
In general terms: Formazan colour is commonly taken as a measure of viable cells.

Another assay concerns M109 lung carcinoma. Nature of the assay: Mice M109 Model (In-Vivo), median survival time % T/C. More on the design: species or system mice (Balb/c x DBA/2 F1 hybrid). As to conditions: Mus musculus, ip, days 1, 5 and 9 or days 5 and 8 post-implant, median survival T/C x 100. The protocol: Balb/c x DBA/2 F1 hybrid mice were implanted intraperitoneally, as described by William Rose in Evaluation of Madison 109 Lung Carcinoma as a Modelfor Screening Antitumor Drugs, Cancer Treatment Reports, 65, No. 3-4 (1981), with 0.5 mL of a 2% (w/v) brei of M109 lung carcinoma.
Mice were treated with compounds under study by receiving intraperitoneal injections of various doses on either days 1, 5 and 9 post-tumor implant or days 5 and 8 post-implant. Mice were followed daily for survival until approximately 75-90 days post-tumor implant. One group of mice per experiment remained untreated and served as the control group.
Median survival times of compound-treated (T) mice were compared to the median survival time of the control (C) mice. The ratio of the two values for each compound-treated group of mice was multiplied by 100 and expressed as a percentage (i.e. % T/C) in the following Table II for representative compounds.

For assay [2] the following is noted: in vivo animal models; cited from earlier work.
Setting [3] is: HCT-116, 72 hours, MTS, inhibition of cell proliferation to 50% of untreated control.

Read-outs that look alike come from different tables or passages of the source.

As a reminder, the IC50 is the concentration needed to halve the response being measured.

Regarding `CC(=O)O[C@H]1C(=O)[C@@]2(C)[C@H]([C@H](OC(=O)c3ccccc3)[C@]3(O)C[C@H](OC(=O)[C@H](O)[C@@H](NC(=O)c4ccccc4)c4ccccc4)C(C)=C1C3(C)C)[C@]1(OC(C)=O)CO[C@@H]1[C@@H](F)[C@@H]2O` [Ia, 6α-Fluoropaclitaxel], the IC50 in assay [1] (HCT-116, 72 h) came to 1.4 nM.
In the case of `COCO[C@H]1[C@H](F)[C@H]2OC[C@@]2(OC(C)=O)[C@H]2[C@H](OC(=O)c3ccccc3)[C@]3(O)C[C@H](OC(=O)[C@H](O)[C@@H](NC(=O)c4ccccc4)c4ccccc4)C(C)=C([C@@H](OC(C)=O)C(=O)[C@@]21C)C3(C)C` [Ib, 7-O-Methoxymethyl-6α-Fluoropaclitaxel], the IC50 in assay [1] (HCT-116, 72 h) worked out at 1.3 nM. Moreover, the response vs control in vivo at 100 mg/kg with M109 lung carcinoma is 162%.
The like results for `CSCO[C@H]1[C@H](F)[C@H]2OC[C@@]2(OC(C)=O)[C@H]2[C@H](OC(=O)c3ccccc3)[C@]3(O)C[C@H](OC(=O)[C@H](O)[C@@H](NC(=O)c4ccccc4)c4ccccc4)C(C)=C([C@@H](OC(C)=O)C(=O)[C@@]21C)C3(C)C` [Ic, 7-O-Meththiomethyl-6α-Fluoropaclitaxel] were, in that order, 3.3 nM and 147%.
Consider `CO[C@H]1[C@H](F)[C@H]2OC[C@@]2(OC(C)=O)[C@H]2[C@H](OC(=O)c3ccccc3)[C@]3(O)C[C@H](OC(=O)[C@H](O)[C@@H](NC(=O)c4ccccc4)c4ccccc4)C(C)=C([C@@H](OC(C)=O)C(=O)[C@@]21C)C3(C)C` [Id, 7-O-Methyl-6α-Fluoropaclitaxel], for which the IC50 in assay [1] (HCT-116, 72 h) is 0.83 nM. Besides, in the assay with M109 lung carcinoma, the response vs control in vivo at 100 mg/kg was determined as 147%.
As for `CC(=O)O[C@H]1C(=O)[C@@]2(C)[C@H]([C@H](OC(=O)c3ccccc3)[C@]3(O)C[C@H](OC(=O)[C@H](O)[C@@H](NC(=O)c4ccccc4)c4ccccc4)C(C)=C1C3(C)C)[C@]1(OC(C)=O)CO[C@@H]1[C@@H](Br)[C@@H]2O` [Ie, 6α-Bromopaclitaxel], the IC50 in assay [1] (setting [3]) was found to be 2.6 nM. Also, in the assay on M109 lung carcinoma (dose 200 mg/kg), the response vs control in vivo at 200 mg/kg came to 214%.
Regarding `CC(=O)O[C@H]1C(=O)[C@@]2(C)[C@H]([C@H](OC(=O)c3ccccc3)[C@]3(O)C[C@H](OC(=O)[C@H](O)[C@@H](NC(=O)c4ccccc4)c4ccccc4)C(C)=C1C3(C)C)[C@]1(OC(C)=O)CO[C@@H]1[C@@H](O[N+](=O)[O-])[C@@H]2O` [If, paclitaxel-6α-nitrate], in assay [1] (HCT-116, 72 h), the IC50 amounted to 1.5 nM. Also, in the assay on M109 lung carcinoma, the response vs control in vivo at 100 mg/kg came out at 132%.
On to `CSCO[C@H]1[C@H](O[N+](=O)[O-])[C@H]2OC[C@@]2(OC(C)=O)[C@H]2[C@H](OC(=O)c3ccccc3)[C@]3(O)C[C@H](OC(=O)[C@H](O)[C@@H](NC(=O)c4ccccc4)c4ccccc4)C(C)=C([C@@H](OC(C)=O)C(=O)[C@@]21C)C3(C)C` [Ih, 7-O-Methylthiomethylpaclitaxel-6α-nitrate], for which the IC50 in assay [1] (HCT-116, 72 h) turned out to be 7.35 nM. The response vs control in vivo at 195 mg/kg in the assay on M109 lung carcinoma is 132%.
The like results for `COCO[C@H]1[C@H](O[N+](=O)[O-])[C@H]2OC[C@@]2(OC(C)=O)[C@H]2[C@H](OC(=O)c3ccccc3)[C@]3(O)C[C@H](OC(=O)[C@H](O)[C@@H](NC(=O)c4ccccc4)c4ccccc4)C(C)=C([C@@H](OC(C)=O)C(=O)[C@@]21C)C3(C)C` [Ii, 7-O-Methoxymethylpaclitaxel-6α-nitrate] were, in that order, 4.95 nM and 141%.
As to `CC(=O)O[C@H]1C(=O)[C@@]2(C)[C@H]([C@H](OC(=O)c3ccccc3)[C@]3(O)C[C@H](OC(=O)[C@H](O)[C@@H](NC(=O)c4ccccc4)c4ccccc4)C(C)=C1C3(C)C)[C@]1(OC(C)=O)CO[C@@H]1[C@@H](Cl)[C@@H]2O` [Ij, 6-α-Chloropaclitaxel], the IC50 in assay [1] (setting [3]) is 1.2 nM. This compound also displayed a response vs control in vivo at 100 mg/kg in the assay on M109 lung carcinoma of 203%.
Turning to `CC(=O)O[C@H]1C(=O)[C@@]2(C)[C@H]([C@H](OC(=O)c3ccccc3)[C@]3(O)C[C@H](OC(=O)[C@H](O)[C@@H](NC(=O)OC(C)(C)C)c4ccccc4)C(C)=C1C3(C)C)[C@]1(OC(C)=O)CO[C@@H]1[C@@H](F)[C@@H]2O` [Ik, 3'N-desbenzoyl-3'N-t-Butoxycarbonyl-6α-Fluoropaclitaxel], the IC50 in assay [1] (HCT-116, 72 h) amounted to 0.2 nM. In addition, the response vs control in vivo at 100 mg/kg with M109 lung carcinoma is 269%.
As to `COCO[C@H]1[C@H](F)[C@H]2OC[C@@]2(OC(C)=O)[C@H]2[C@H](OC(=O)c3ccccc3)[C@]3(O)C[C@H](OC(=O)[C@H](O)[C@@H](NC(=O)OC(C)(C)C)c4ccccc4)C(C)=C([C@@H](OC(C)=O)C(=O)[C@@]21C)C3(C)C` [Il, 3'N-desbenzoyl-3'N-t-Butoxycarbonyl-7-O-methoxymethyl-6a-Fluoropaclitaxel], in assay [1] (HCT-116, 72 h), the IC50 came out at 2.5 nM. The same compound came in with a response vs control in vivo at 50 mg/kg in the assay with M109 lung carcinoma of 187%.
As to `CSCO[C@H]1[C@H](F)[C@H]2OC[C@@]2(OC(C)=O)[C@H]2[C@H](OC(=O)c3ccccc3)[C@]3(O)C[C@H](OC(=O)[C@H](O)[C@@H](NC(=O)OC(C)(C)C)c4ccccc4)C(C)=C([C@@H](OC(C)=O)C(=O)[C@@]21C)C3(C)C` [Im, 3'N-desbenzoyl-3'N-t-Butoxycarbonyl-7-O-methylthiomethyl-6α-Fluoropaclitaxel], the 50% inhibitory concentration (IC50) in assay [1] (setting [3]) came to 1 nM.
`CO[C@H]1[C@H](F)[C@H]2OC[C@@]2(OC(C)=O)[C@H]2[C@H](OC(=O)c3ccccc3)[C@]3(O)C[C@H](OC(=O)[C@H](O)[C@@H](NC(=O)OC(C)(C)C)c4ccccc4)C(C)=C([C@@H](OC(C)=O)C(=O)[C@@]21C)C3(C)C` [In, 3'N-desbenzoyl-3'N-t-Butoxycarbonyl-7-O-methyl-6α-Fluoropaclitaxel]: the response vs control in vivo at 25 mg/kg in the assay on M109 lung carcinoma was 144%.
Consider `CC(=O)O[C@H]1C(=O)[C@]2(C)C[C@@H](Cl)[C@H]3OC[C@@]3(OC(C)=O)[C@H]2[C@H](OC(=O)c2ccccc2)[C@]2(O)C[C@H](OC(=O)[C@H](O)[C@@H](NC(=O)c3ccccc3)c3ccccc3)C(C)=C1C2(C)C` [Io, 7-Deoxy-6-β-Chloropaclitaxel], for which, in assay [1] (setting [3]), the concentration for half-maximal inhibition (IC50) came to 0.62 nM. For the same compound, the response vs control in vivo at 25 mg/kg with M109 lung carcinoma stood at 166%.
Turning to `CC(=O)O[C@H]1C(=O)[C@]2(C)C[C@@H](Br)[C@H]3OC[C@@]3(OC(C)=O)[C@H]2[C@H](OC(=O)c2ccccc2)[C@]2(O)C[C@H](OC(=O)[C@H](O)[C@@H](NC(=O)c3ccccc3)c3ccccc3)C(C)=C1C2(C)C` [Ip, 7-Deoxy-6-β-Bromopaclitaxel], the IC50 in assay [1] (HCT-116, 72 h) was 0.72 nM. The compound further showed a response vs control in vivo at 50 mg/kg with M109 lung carcinoma of 172%.
Regarding `CC(=O)O[C@H]1C(=O)[C@]2(C)C[C@@H](I)[C@H]3OC[C@@]3(OC(C)=O)[C@H]2[C@H](OC(=O)c2ccccc2)[C@]2(O)C[C@H](OC(=O)[C@H](O)[C@@H](NC(=O)c3ccccc3)c3ccccc3)C(C)=C1C2(C)C` [Iq, 7-Deoxy-6-β-Iodopaclitaxel], in assay [1] (HCT-116, 72 h), the IC50 was determined as 2.24 nM. Further, the response vs control in vivo at 50 mg/kg in the assay with M109 lung carcinoma is 129%.
Consider `CC(=O)O[C@H]1C(=O)[C@@]2(C)[C@H]([C@H](OC(=O)c3ccccc3)[C@]3(O)C[C@H](OC(=O)[C@H](O)[C@@H](NC(=O)c4ccccc4)c4ccccc4)C(C)=C1C3(C)C)[C@]1(OC(C)=O)CO[C@@H]1C[C@@H]2O` [paclitaxel], for which the antitumor activity entry in assay [2] was “excellent antitumor activity in in vivo animal models”. Moreover, the IC50 in assay [1] (HCT-116, 72 h) was 1.53 to 2.73 nM.
